From paper PMC12673918, “Design, Synthesis, and Selective Antiproliferative Activity of Indolizine Derivatives as Microtubule Destabilizers” (Archiv Der Pharmazie, 2025)

Experiments:
Type in all cases: cell-based
human P2X4 receptor = molecular target: T1, human P2X4 receptor (Homo sapiens, UniProt Q99571); experiment: Ca2+‐flux assay for the hP2X4 receptor; settings: read-out: % Inhibition of P2X4R at 10 µM compounds’ concentration
T1 construct: expressed in transfected cells; host or cells: human 1321N1 astrocytoma cells
T1 sequence (Q99571 1-388): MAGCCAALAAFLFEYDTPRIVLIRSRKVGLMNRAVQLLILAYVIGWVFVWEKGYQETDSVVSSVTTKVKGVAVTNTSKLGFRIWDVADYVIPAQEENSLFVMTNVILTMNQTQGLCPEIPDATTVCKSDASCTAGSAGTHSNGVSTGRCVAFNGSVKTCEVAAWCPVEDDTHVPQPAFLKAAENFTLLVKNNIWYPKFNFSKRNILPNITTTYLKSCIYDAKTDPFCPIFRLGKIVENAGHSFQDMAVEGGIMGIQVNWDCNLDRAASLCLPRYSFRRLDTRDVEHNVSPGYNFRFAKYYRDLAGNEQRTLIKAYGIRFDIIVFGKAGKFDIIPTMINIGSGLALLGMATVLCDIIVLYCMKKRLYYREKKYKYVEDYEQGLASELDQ
Experimental: Human 1321N1 astrocytoma cells stably expressing the human P2X4 receptor (generated in‐house) were cultured in Dulbecco's Modified Eagle Medium supplemented with 9% (v/v) FCS, 1% (v/v) Penicillin/Streptomycin (10000 I.U./mL, 10 mg/mL in 0.9% NaCl) and puromycin (1 µg/mL) as a selection antibiotic at 37°C and 5% CO2. Cells were subcultured in cell culture 75 cm^2 flasks and split every 2–4 days (1:5; 1:6) once confluent.
1321N1 cells stably expressing human P2X4 receptor were seeded into black‐walled 96‐well plates (Thermo Fisher Scientific) at 2.5 × 10^4 cells/well and incubated at 37°C for 24–48 h. All test compounds were diluted in assay buffer solution (SBS: 135 mM NaCl; 5 mM KCl; 1 mM MgCl2.6 H2O; 1.8 mM CaCl2; 5.6 mM D‐Glucose; 10 mM HEPES, 0.1% (m/v) BSA, 0.05% (m/v) gelatine, 2.3 mM probenecid). The culture medium was removed, and 100 µL of 4 μM fluorescent Ca^2+ indicator Calbryte520AM in SBS was added and incubated at 37°C for 1 h. The dye solution was then removed, 100 µL of SBS solution and 50 µL of antagonist dilutions (10^–5–10^–9 M) in SBS were added, and the cells were incubated at room temperature for an extra 30 min. Finally, 50 µL of ATP (at a concentration of the previously determined EC50‐ value) was added by using FlexStation 3 Multi‐Mode Microplate Reader (Molecular Devices, San Jose, CA, USA, Software SoftMax7 Pro). The changes in intracellular Ca^2+ ion concentrations were monitored over 200 s (20 s baseline) by measuring the fluorescence signal at λ ex = 494 nm and λ em = 516 nm ([…] cut‐off). The concentration‐dependent decrease in Ca^2+‐flux, expressed as RFU, was plotted against the concentrations of the compounds.

[1] = test system: CAL‐27, BT‐20 and HGC‐27 cancer cell lines; experiment: Resazurin antiproliferative screening, cancer cell line panel; settings: for level of inhibition in the 50 µM screening: 70% inhibition threshold; for IC50: range over CAL‐27, BT‐20, HGC‐27, read-out: IC50 values across cancer cell lines
Experimental: The tongue squamous cell carcinoma cell line CAL‐27 (ATCC CRL‐2095), breast carcinoma BT‐20 (ATCC HTB‐19), gastric carcinoma HGC‐27 (BCRJ Code 0310), and normal oral fibroblast OHMF (culture of fibroblasts derived from human oral healthy mucosa, approved by the Research Ethics Committee of the University of São Paulo, Campus of Ribeirão Preto, Brazil (with protocol number 049) were cultured in DMEM medium (DMEM, Sigma‐Aldrich, St. Louis, MO, USA) supplemented with 10% fetal bovine serum and a solution of penicillin (100 U/mL) and streptomycin (100 μg/mL). The cultures were maintained in a humidified incubator with 5% CO₂ at 37°C.
Cell viability was analyzed using the resazurin assay. For this, cells were seeded in 96‐well plates (1 × 10^3 cells per well) and incubated at 37°C with 5% CO₂ overnight for cell adhesion. Subsequently, the cells were treated with different compounds (0–50 µM) for 72 h. After treatment, the medium was replaced with phenol‐free DMEM medium (Sigma‐Aldrich) containing resazurin at a concentration of 44 µM (Sigma‐Aldrich). After incubation for 4 h at 37°C, fluorescence detection was performed (excitation 530/25 nm, emission 590/35 nm) using a microplate fluorimeter (Synergy 2, Biotek). Initial cell growth inhibition assays were performed in triplicate or quadruplicate, while IC50 determinations were conducted in triplicate. Data were plotted, and IC₅₀ values were determined by nonlinear regression using GraphPad Prism software 9.0.

[2] = test system: BT‐20 breast cancer cells; experiment: Cell‐cycle assay by flow cytometry; settings: 2.5 µM, 24 h
Experimental: BT‐20 cells were seeded in 10 cm plates (1.5 × 10⁶ cells/plate) and incubated at 37°C with 5% CO₂ for 24 h. Subsequently, the cells were treated with different compounds at a concentration of 2.5 µM for 24 h. After treatment, the cells were collected by centrifugation and fixed in cold 70% ethanol for 1 h at 4°C. The cells were then washed, collected by centrifugation, and treated with RNase A (100 μg/mL, Sigma‐Aldrich) for 30 min at 37°C, followed by staining with propidium iodide (50 μg/mL) for 15 min at 37°C. Finally, the percentages of cells in each phase of the cell cycle were determined using FACSCalibur flow cytometry (BD Biosciences—San Jose, CA, USA). Cell‐cycle distribution was analyzed using ModFit LT V3.3 software.

[3] = test system: BT‐20 breast cancer cells; experiment: Western blot of cell‐cycle, apoptosis and signaling proteins; settings: 2.5 µM for 24 h
Experimental: Cells were seeded in 10 cm plates (1.5 × 10⁶ cells/plate) and incubated for 24 h. Subsequently, the cells were treated with the compounds at a concentration of 2.5 µM for 24 h. After treatment, the cells were collected, and the proteins were isolated. A total of 30 µg of proteins were separated electrophoretically on a sodium dodecyl sulfate‐polyacrylamide gel (SDS‐PAGE) and transferred onto a polyvinylidene fluoride (PVDF) membrane (GE Healthcare) using the PowerBlotter Station (Invitrogen) according to the manufacturer's recommendations. After transfer, the membrane was blocked with a 5% (w/v) nonfat milk solution in TBS‐T (0.1 M Tris (pH 7.5), 0.9% NaCl, 0.1% Tween‐20) at room temperature for 1 h under gentle agitation. The membrane was then washed with TBS‐T and incubated with primary antibodies under agitation for approximately 16 h at 4°C. The primary antibodies used were: c‐Myc (#5605), ß‐tubulin (#2128), p21 (#2947), Cyclin D1 (#2978), Bcl‐2 (#15071), p‐AKT ser473 (#4058), and GAPDH (#2118) (Cell Signaling Technology). After primary antibody incubation, the membranes were washed with TBS‐T and incubated at room temperature for 1 h in a TBS‐T solution containing 5% nonfat milk and the HRP‐conjugated secondary antibody. Following the washes with TBS‐T, the membranes were incubated with the SuperSignal West Dura substrate (Thermo Scientific). Immunodetection was analyzed using the ChemiDoc imaging system (Bio‐Rad).

SMILES | inhibition at 10 µM (human P2X4 receptor) [%] | level of inhibition in the 50 µM screening [1] | cell‐cycle distribution [2] | Bcl‐2 levels [3] | cyclin D1 levels [3] | p21 expression [3] | IC50 [1] [nM]
COc1ccc2c(C(=O)c3cc(OC)c(OC)c(OC)c3)c(-c3ccc(C)cc3)cn2c1 [Compound 8j, [6‐methoxy‐2‐(p ‐tolyl)indolizin‐1‐yl](3,4,5‐trimethoxyphenyl)methanone] | 0 | 89.5% to 73.1 | – | – | – | – | –
COc1ccc2c(C(=O)c3cc(OC)c(OC)c(OC)c3)c(C(C)(C)C)cn2c1 [Compound 8b, [2‐(Tert‐Butyl)‐6‐Methoxyindolizin‐1‐yl](3,4,5‐Trimethoxyphenyl)Methanone] | -6 | 89.5% to 73.1 | – | – | – | – | –
COc1ccc2c(C(=O)c3cc(OC)c(OC)c(OC)c3)c(C)cn2c1 [Compound 8a, (6‐methoxy‐2‐methylindolizin‐1‐yl)(3,4,5‐trimethoxyphenyl)methanone] | 5 | – | – | – | – | – | –
COc1ccc2c(C(=O)c3cc(OC)c(OC)c(OC)c3)c(C(F)(F)F)cn2c1 [Compound 8e, [6‐methoxy‐2‐(trifluoromethyl)indolizin‐1‐yl](3,4,5‐trimethoxyphenyl)methanone] | -9 | 89.5% to 73.1 | significant accumulation of cells in the G2/M phase | decrease | markedly decreased | upregulated | 47 to 117
CCCc1cn2cc(OC)ccc2c1C(=O)c1cc(OC)c(OC)c(OC)c1 [Compound 8h, (6‐methoxy‐2‐propylindolizin‐1‐yl)(3,4,5‐trimethoxyphenyl)methanone] | 6 | 89.5% to 73.1 | significant accumulation of cells in the G2/M phase | decrease | markedly decreased | upregulated | 47 to 117
COc1ccc(-c2cn3cc(OC)ccc3c2C(=O)c2cc(OC)c(OC)c(OC)c2)cc1 [Compound 8k, [6‐methoxy‐2‐(4‐methoxyphenyl)indolizin‐1‐yl](3,4,5‐trimethoxyphenyl)methanone] | 7 | 89.5% to 73.1 | – | – | – | – | –
COc1ccc2c(C(=O)c3ccc(Cl)c(Cl)c3)ccn2c1 [Compound 7e, (6‐methoxyindolizin‐1‐yl)(3,4‐dichlorophenyl)methanone] | -3 | – | – | – | – | – | –
